PubChem BioAssay AID256 (DTP/NCI, 2004)
Where “and” joins values, the source holds several entries; their conditions need not be identical. Equal entries are not always repeated. Toxic doses and inconclusive results are not listed. The calls were made as follows: active = survival T/C of 150% or more; inactive = T/C below 125% in these data.

Test system: CD2F1 mice, L1210 leukemia ip, survival T/C
Experiment: NCI In Vivo Anticancer Drug Screen. Data for tumor model L1210 Leukemia (intraperitoneal) in CD2F1 (CDF1) mice
Settings: higher = longer survival
How it was run: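 Ratio T/C, where T is the treated-group value and C the vehicle-dosed control value, from mice implanted with a transplantable tumor.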

[1] = endpoint: mean survival time, dose: 100.0 mg/kg/injection, schedule: Q04DX003 (ip), vehicle: saline with Tween-80
[2] = endpoint: mean survival time, dose: 200.0 mg/kg/injection, schedule: Q04DX003 (ip), vehicle: saline with Tween-80
[3] = endpoint: mean survival time, dose: 400.0 mg/kg/injection, schedule: Q04DX003 (ip), vehicle: saline with Tween-80
[4] = endpoint: mean survival time, dose: 12.5 mg/kg/injection, schedule: Q01DX009 (ip), vehicle: saline with Tween-80
[5] = endpoint: mean survival time, dose: 25.0 mg/kg/injection, schedule: Q01DX009 (ip), vehicle: saline with Tween-80
[6] = endpoint: mean survival time, dose: 50.0 mg/kg/injection, schedule: Q01DX009 (ip), vehicle: saline with Tween-80
[7] = endpoint: mean survival time, dose: 100.0 mg/kg/injection, schedule: Q01DX009 (ip), vehicle: saline with Tween-80
[8] = endpoint: mean survival time, dose: 200.0 mg/kg/injection, schedule: Q01DX009 (ip), vehicle: saline with Tween-80
[9] = endpoint: mean survival time, dose: 400.0 mg/kg/injection, schedule: Q01DX009 (ip), vehicle: saline with Tween-80
[10] = endpoint: mean survival time, dose: 100.0 mg/kg/injection, schedule: Q01DX001 (ip), vehicle: saline with Tween-80
[11] = endpoint: mean survival time, dose: 200.0 mg/kg/injection, schedule: Q01DX001 (ip), vehicle: saline with Tween-80
[12] = endpoint: mean survival time, dose: 400.0 mg/kg/injection, schedule: Q01DX001 (ip), vehicle: saline with Tween-80
[13] = endpoint: mean survival time, dose: 12.5 mg/kg/injection, schedule: Q04DX003 (ip), vehicle: saline with Tween-80
[14] = endpoint: mean survival time, dose: 25.0 mg/kg/injection, schedule: Q04DX003 (ip), vehicle: saline with Tween-80

Measured: T/C

O=c1[nH]c(=O)n(C2CC(O)C(CO)O2)cc1S (stereo unspecified)
inactive: endpoint: mean survival time, dose: 12.5 mg/kg/injection, schedule: Q01DX005 (ip), vehicle: water 107 % of control | endpoint: mean survival time, dose: 25.0 mg/kg/injection, schedule: Q01DX005 (ip), vehicle: water 117 % of control | endpoint: mean survival time, dose: 50.0 mg/kg/injection, schedule: Q01DX005 (ip), vehicle: water 112 % of control | endpoint: mean survival time, dose: 100.0 mg/kg/injection, schedule: Q01DX005 (ip), vehicle: water 122 % of control | endpoint: mean survival time, dose: 133.0 mg/kg/injection, schedule: Q01DX005 (ip), vehicle: water 121 % of control | endpoint: mean survival time, dose: 200.0 mg/kg/injection, schedule: Q01DX005 (ip), vehicle: water 111 % of control | endpoint: mean survival time, dose: 300.0 mg/kg/injection, schedule: Q01DX005 (ip), vehicle: water 115 % of control

COC1=C(OC)C(=O)C(C/C=C(\C)CCCC(C)CCCC(C)CCCC(C)C)=C(C)C1=O (stereo unspecified)
inactive: endpoint: mean survival time, dose: 100.0 mg/kg/injection, schedule: Q01DX009 (ip), vehicle: other 94 % of control | endpoint: mean survival time, dose: 200.0 mg/kg/injection, schedule: Q01DX009 (ip), vehicle: other 95 % of control | endpoint: mean survival time, dose: 400.0 mg/kg/injection, schedule: Q01DX009 (ip), vehicle: other 94 % of control

CN(C)C/C(=C\c1ccccc1)C(=O)c1ccccc1
inactive: endpoint: mean survival time, dose: 12.5 mg/kg/injection, schedule: Q04DX003 (ip), vehicle: other 98 % of control | endpoint: mean survival time, dose: 25.0 mg/kg/injection, schedule: Q04DX003 (ip), vehicle: other 97 % of control | endpoint: mean survival time, dose: 50.0 mg/kg/injection, schedule: Q04DX003 (ip), vehicle: other 101 % of control

Nc1ccc(CCCCc2nc(N)nc(N)c2-c2ccc(Cl)c(Cl)c2)cc1
inactive: [1] 98 % of control | [2] 100 % of control | [3] 113 % of control

CCCCOC(=O)/C=C/C(=O)OCCCC
inactive: [1] 102 % of control | [2] 102 % of control | [3] 105 % of control

O=c1[nH]c(=O)c2ccccc2o1
inactive: [4] 101 % of control | [5] 101 % of control | [6] 98 % of control

Cc1cc(C)c(C(=O)c2ccccc2-c2ccccc2C(=O)c2c(C)cc(C)cc2C)c(C)c1
inactive: [7] 86 % of control | [1] 96 % of control | [8] 89 % of control | [2] 100 % of control | [9] 91 % of control | [3] 96 % of control

CCCN1CSC(=S)N(Cc2ccccc2)C1
inactive: [7] 92 % of control | [8] 97 % of control | [9] 92 % of control

COc1cc(OC)c2c[n+](C)c3c4cc(OC)c(OC)cc4ccc3c2c1
inactive: endpoint: mean survival time, dose: 12.5 mg/kg/injection, schedule: Q01DX009 (ip), vehicle: saline 102 % of control | endpoint: mean survival time, dose: 25.0 mg/kg/injection, schedule: Q01DX009 (ip), vehicle: saline 102 % of control | endpoint: mean survival time, dose: 50.0 mg/kg/injection, schedule: Q01DX009 (ip), vehicle: saline 98 % of control

O=C1CSC(=S)N1/N=C/c1ccc2c(c1)OCO2
inactive: endpoint: mean survival time, dose: 75.0 mg/kg/injection, schedule: Q01DX001 (ip), vehicle: other 94 % of control | endpoint: mean survival time, dose: 150.0 mg/kg/injection, schedule: Q01DX001 (ip), vehicle: other 93 % of control | endpoint: mean survival time, dose: 300.0 mg/kg/injection, schedule: Q01DX001 (ip), vehicle: other 97 % of control

O=C1CC(c2ccc(Br)cc2)N(c2ccc([As](=O)(O)O)cc2)C1=O (stereo unspecified)
inactive: endpoint: mean survival time, dose: 6.25 mg/kg/injection, schedule: Q01DX009 (ip), vehicle: Klucel (hydroxypropylcellulose) (HPC) 95 % of control | endpoint: mean survival time, dose: 12.5 mg/kg/injection, schedule: Q01DX009 (ip), vehicle: Klucel (hydroxypropylcellulose) (HPC) 89 % of control | endpoint: median survival time, dose: 6.25 mg/kg/injection, schedule: Q04DX003 (ip), vehicle: saline with Tween-80 100 % of control | endpoint: median survival time, dose: 12.5 mg/kg/injection, schedule: Q04DX003 (ip), vehicle: saline with Tween-80 106 % of control | endpoint: median survival time, dose: 25.0 mg/kg/injection, schedule: Q04DX003 (ip), vehicle: saline with Tween-80 100 % of control

C/C=C\C=C\C(=O)O
inactive: [7] 100 % of control | [8] 97 % of control | [9] 100 % of control

CSc1nc(=O)[nH]nc1Sc1ccccc1
inactive: endpoint: mean survival time, dose: 75.0 mg/kg/injection, schedule: Q01DX001 (ip), vehicle: saline 102 % of control | endpoint: mean survival time, dose: 150.0 mg/kg/injection, schedule: Q01DX001 (ip), vehicle: saline 101 % of control

NC(=N\O)/C(N)=N/O.[Cl][Pd][Cl]
inactive: endpoint: median survival time, dose: 3.12 mg/kg/injection, schedule: Q04DX003 (ip), vehicle: saline 100 % of control | endpoint: median survival time, dose: 6.25 mg/kg/injection, schedule: Q04DX003 (ip), vehicle: saline 100 % of control | endpoint: median survival time, dose: 12.5 mg/kg/injection, schedule: Q04DX003 (ip), vehicle: saline 103 % of control | endpoint: median survival time, dose: 25.0 mg/kg/injection, schedule: Q04DX003 (ip), vehicle: saline 100 % of control | endpoint: median survival time, dose: 50.0 mg/kg/injection, schedule: Q04DX003 (ip), vehicle: saline 97 % of control | endpoint: median survival time, dose: 100.0 mg/kg/injection, schedule: Q04DX003 (ip), vehicle: saline 98 % of control | endpoint: median survival time, dose: 200.0 mg/kg/injection, schedule: Q04DX003 (ip), vehicle: saline 97 % of control

COc1ccc2ccccc2c1
inactive: [10] 101 % of control | endpoint: mean survival time, dose: 100.0 mg/kg/injection, schedule: Q04DX003 (ip), vehicle: other 100 % of control | [11] 100 % of control | endpoint: mean survival time, dose: 200.0 mg/kg/injection, schedule: Q04DX003 (ip), vehicle: other 104 % of control | [12] 111 % of control

O=C1Cc2cc3c(cc2C=C2CCCN12)OCO3
inactive: endpoint: mean survival time, dose: 25.0 mg/kg/injection, schedule: Q01DX009 (ip), vehicle: water 103 % of control | endpoint: mean survival time, dose: 50.0 mg/kg/injection, schedule: Q01DX009 (ip), vehicle: water 97 % of control | endpoint: mean survival time, dose: 100.0 mg/kg/injection, schedule: Q01DX009 (ip), vehicle: water 103 % of control | endpoint: mean survival time, dose: 400.0 mg/kg/injection, schedule: Q01DX009 (ip), vehicle: water 113 % of control

O=C(/C(=C\c1ccccc1)N1CCOCC1)c1ccc(Cl)cc1
inactive: [5] 95 % of control | [6] 97 % of control | [7] 86 % of control

O=C1OC(=O)C2C3C=CC(C3)C12 (stereo unspecified)
inactive: [13] 95 % of control | [14] 101 % of control | endpoint: mean survival time, dose: 50.0 mg/kg/injection, schedule: Q04DX003 (ip), vehicle: saline with Tween-80 95 % of control | [10] 98 % of control | endpoint: mean survival time, dose: 100.0 mg/kg/injection, schedule: Q01DX009 (ip), vehicle: saline 102 % of control | [1] 101 % of control | [11] 100 % of control | endpoint: mean survival time, dose: 200.0 mg/kg/injection, schedule: Q01DX009 (ip), vehicle: saline 96 % of control | [2] 102 % of control | [12] 93 % of control | endpoint: mean survival time, dose: 400.0 mg/kg/injection, schedule: Q01DX009 (ip), vehicle: saline 90 % of control | [3] 102 % of control

CCCCOP(=O)(OCCCC)Oc1cccc2ccccc12
inactive: endpoint: mean survival time, dose: 100.0 mg/kg/injection, schedule: Q04DX002 (ip), vehicle: saline with Tween-80 91 % of control | endpoint: mean survival time, dose: 200.0 mg/kg/injection, schedule: Q04DX002 (ip), vehicle: saline with Tween-80 95 % of control | endpoint: mean survival time, dose: 400.0 mg/kg/injection, schedule: Q04DX002 (ip), vehicle: saline with Tween-80 106 % of control

O=C1NC(=O)c2cc(C(F)(F)F)ccc21
inactive: endpoint: mean survival time, dose: 6.25 mg/kg/injection, schedule: Q01DX009 (ip), vehicle: saline with Tween-80 95 % of control | [4] 89 % of control | [13] 101 % of control | [14] 100 % of control

COC(=O)c1ccccc1NC(=S)NC(=O)COc1ccccc1
inactive: [7] 97 % of control | [8] 95 % of control | [9] 98 % of control

CO[C@@]12[C@@H]3N[C@@H]3CN1C1=C(C(=O)C(NCCN3CCCC3)=C(C)C1=O)[C@@H]2COC(N)=O
inactive: endpoint: mean survival time, dose: 0.31 mg/kg/injection, schedule: Q01DX005 (ip), vehicle: water 101 % of control | endpoint: mean survival time, dose: 0.62 mg/kg/injection, schedule: Q01DX005 (ip), vehicle: water 101 % of control | endpoint: mean survival time, dose: 1.25 mg/kg/injection, schedule: Q01DX005 (ip), vehicle: water 113 % of control | endpoint: mean survival time, dose: 1.5 mg/kg/injection, schedule: Q01DX001 (ip), vehicle: water 100 % of control | endpoint: mean survival time, dose: 2.5 mg/kg/injection, schedule: Q01DX005 (ip), vehicle: water 120 % of control and 122 % of control | endpoint: mean survival time, dose: 3.0 mg/kg/injection, schedule: Q01DX001 (ip), vehicle: water 94 % of control | endpoint: mean survival time, dose: 6.0 mg/kg/injection, schedule: Q01DX001 (ip), vehicle: water 115 % of control | endpoint: mean survival time, dose: 12.0 mg/kg/injection, schedule: Q01DX001 (ip), vehicle: water 103 % of control
